Results as given in the NIST ThermoML archive (doi:10.1021/je060158k).

Conditions: 100 kPa, Liquid, Capillary tube (Ostwald / Ubbelohde) method

CCCCCCCCCCl [1-chlorononane]
Conditions | kinematic viscosity [m2/s]
296.21 K | 1.68e-06
300.65 K | 1.57e-06
313.15 K | 1.3e-06
318.15 K | 1.21e-06
323.15 K | 1.13e-06
328.15 K | 1.07e-06
333.15 K | 1e-06
338.15 K | 9.48e-07
343.15 K | 8.97e-07
348.15 K | 8.52e-07
353.15 K | 8.09e-07
358.15 K | 7.72e-07
363.15 K | 7.37e-07
368.15 K | 7.04e-07
373.15 K | 6.73e-07
383.15 K | 6.19e-07
393.15 K | 5.72e-07
403.15 K | 5.31e-07
413.15 K | 4.94e-07

CCCCCCCI [1-iodoheptane]
Conditions | kinematic viscosity [m2/s]
296.35 K | 1.18e-06
297.2 K | 1.17e-06
303.5 K | 1.06e-06
313.2 K | 9.24e-07
318.15 K | 8.67e-07
323.15 K | 8.12e-07
328.15 K | 7.66e-07
333.15 K | 7.25e-07
338.15 K | 6.87e-07
343.15 K | 6.53e-07
348.15 K | 6.2e-07
353.15 K | 5.91e-07
363.15 K | 5.41e-07
368.15 K | 5.17e-07
373.15 K | 4.98e-07
378.15 K | 4.76e-07
383.15 K | 4.58e-07
393.15 K | 4.24e-07
403.15 K | 3.96e-07
413.15 K | 3.7e-07
423.15 K | 3.46e-07

CCCCCCI [1-iodohexane]
Conditions | kinematic viscosity [m2/s]
297.25 K | 9.1e-07
298.15 K | 9.03e-07
298.25 K | 9e-07
300.25 K | 8.74e-07
318.15 K | 7.01e-07
319.15 K | 6.89e-07
323.15 K | 6.63e-07
328.15 K | 6.26e-07
333.15 K | 5.97e-07
338.15 K | 5.68e-07
343.15 K | 5.39e-07
348.15 K | 5.18e-07
358.15 K | 4.74e-07
368.15 K | 4.37e-07
383.15 K | 3.91e-07
393.15 K | 3.64e-07
413.15 K | 3.19e-07
423.15 K | 3.01e-07
